{
  "source": "ChEMBL document CHEMBL1158235",
  "about": "“Dendroamides, new cyclic hexapeptides from a blue-green alga. Multidrug-resistance reversing activity of dendroamide A” (J Nat Prod, 1996)",
  "assay_type_in_all_cases": "cell-based",
  "key": {"[1]": {"biological_target": "T1, ATP-dependent translocase ABCB1 (Homo sapiens, UniProt P08183)", "T1 sequence (P08183 whole entry)": "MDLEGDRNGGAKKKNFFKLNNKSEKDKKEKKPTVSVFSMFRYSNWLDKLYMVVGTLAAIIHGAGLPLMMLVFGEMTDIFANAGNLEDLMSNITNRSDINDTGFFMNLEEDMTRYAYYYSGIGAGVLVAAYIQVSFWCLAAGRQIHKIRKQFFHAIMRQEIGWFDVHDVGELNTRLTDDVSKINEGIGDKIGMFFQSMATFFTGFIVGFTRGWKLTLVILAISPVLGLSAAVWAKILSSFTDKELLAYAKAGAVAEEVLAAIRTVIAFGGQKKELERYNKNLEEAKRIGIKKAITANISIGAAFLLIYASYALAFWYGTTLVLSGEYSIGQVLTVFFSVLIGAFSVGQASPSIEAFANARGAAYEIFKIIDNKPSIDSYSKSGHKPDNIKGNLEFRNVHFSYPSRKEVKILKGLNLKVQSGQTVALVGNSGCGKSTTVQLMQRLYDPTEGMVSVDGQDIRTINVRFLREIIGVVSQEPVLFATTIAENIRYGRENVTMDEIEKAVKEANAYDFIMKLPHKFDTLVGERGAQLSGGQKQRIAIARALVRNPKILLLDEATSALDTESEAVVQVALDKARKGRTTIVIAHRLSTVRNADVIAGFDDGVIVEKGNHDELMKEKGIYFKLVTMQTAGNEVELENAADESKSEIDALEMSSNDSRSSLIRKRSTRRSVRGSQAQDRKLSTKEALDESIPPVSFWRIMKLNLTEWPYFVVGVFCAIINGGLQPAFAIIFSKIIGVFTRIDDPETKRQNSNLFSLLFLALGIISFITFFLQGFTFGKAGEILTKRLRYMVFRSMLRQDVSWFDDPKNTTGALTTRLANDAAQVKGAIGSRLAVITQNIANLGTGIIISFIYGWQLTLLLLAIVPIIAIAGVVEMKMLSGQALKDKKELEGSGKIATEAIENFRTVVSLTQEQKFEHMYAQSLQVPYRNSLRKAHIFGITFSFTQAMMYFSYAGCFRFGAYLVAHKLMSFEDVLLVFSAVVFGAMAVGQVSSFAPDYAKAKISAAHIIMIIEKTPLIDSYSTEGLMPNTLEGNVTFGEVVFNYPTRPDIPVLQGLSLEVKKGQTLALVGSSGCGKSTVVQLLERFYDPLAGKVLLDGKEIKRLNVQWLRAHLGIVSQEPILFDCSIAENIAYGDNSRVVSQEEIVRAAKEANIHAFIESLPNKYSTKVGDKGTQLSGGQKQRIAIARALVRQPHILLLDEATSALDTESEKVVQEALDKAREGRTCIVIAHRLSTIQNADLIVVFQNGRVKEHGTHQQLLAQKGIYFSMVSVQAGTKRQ", "assay": "Inhibition of p-glycoprotein expressing human MCF7/ADR cells assessed as cell killing after 48 hrs by SRB binding assay in presence of 4 uM cisplatin", "settings": "nci/adr-res"}, "[2]": {"biological_target": "T1, ATP-dependent translocase ABCB1", "assay": "Inhibition of p-glycoprotein expressing human MCF7/ADR cells assessed as cell killing after 48 hrs by SRB binding assay in presence of 200 uM actinomycin D", "settings": "nci/adr-res"}, "MCF7/VP [3]": {"system": "MCF7/VP", "assay": "Inhibition of MRP expressed in human MCF7/VP cells assessed as increase in etoposide-induced cytotoxicity"}, "MCF7/VP [4]": {"system": "MCF7/VP", "assay": "Inhibition of MRP expressed in human MCF7/VP cells assessed as increase in cisplatin-induced cytotoxicity"}, "NCI/ADR-RES [5]": {"system": "NCI/ADR-RES", "assay": "Displacement of [3H]azidopine from p-glycoprotein expressed in human MCF7/ADR cells assessed as photoaffinity labeling reduction at 0.5 uM", "set-up": "scale not given: the % may be the effect or the level left"}, "[6]": {"biological_target": "T1, ATP-dependent translocase ABCB1", "assay": "Inhibition of p-glycoprotein expressing human MCF7/ADR cells assessed as increase in vinblastine sensitivity to cell killing at 0.6 uM after 48 hrs by SRB assay", "settings": "nci/adr-res"}, "MCF7/VP [7]": {"system": "MCF7/VP", "assay": "Inhibition of MRP expressing human MCF7/VP cells assessed as increase in vincristine-induced cytotoxicity at 5 to 10 uM after 48 hrs by SRB binding assay"}, "MCF7/VP [8]": {"system": "MCF7/VP", "assay": "Inhibition of MRP expressed in human MCF7/VP cells assessed as increase in doxorubicin-induced cytotoxicity"}, "[9]": {"biological_target": "T1, ATP-dependent translocase ABCB1", "assay": "Inhibition of p-glycoprotein expressing human MCF7/ADR cells assessed as cell killing after 48 hrs by SRB binding assay in presence of 15M daunomycin", "settings": "nci/adr-res"}, "[10]": {"biological_target": "T1, ATP-dependent translocase ABCB1", "assay": "Inhibition of p-glycoprotein expressing human MCF7 cells assessed as [3H]vinblastine accumulation"}, "[11]": {"biological_target": "T1, ATP-dependent translocase ABCB1", "assay": "Inhibition of p-glycoprotein expressing human MCF7/ADR cells assessed as [3H]vinblastine accumulation treated at 20 uM measured after 60 mins", "settings": "nci/adr-res, 1 h"}, "NCI/ADR-RES [12]": {"system": "NCI/ADR-RES", "assay": "Displacement of [3H]azidopine from p-glycoprotein expressed in human MCF7/ADR cells assessed as photoaffinity labeling reduction at 10 uM", "set-up": "scale not given: the % may be the effect or the level left"}, "[13]": {"biological_target": "T1, ATP-dependent translocase ABCB1", "assay": "Inhibition of p-glycoprotein expressing human MCF7/ADR cells assessed as [3H]vinblastine accumulation treated at 5 uM measured after 60 mins", "settings": "nci/adr-res, 1 h"}, "MCF7/VP [14]": {"system": "MCF7/VP", "assay": "Inhibition of MRP expressed in human MCF7/VP cells assessed as increase in vincristine-induced cytotoxicity at 20 uM after 48 hrs by SRB binding assay"}},
  "note": "Calls of active or inactive are those of the source. No cut-off for these calls is given here.",
  "data": [
    {"smiles": "Cc1oc2nc1C(=O)N[C@H](C(C)C)c1nc(cs1)C(=O)N[C@H](C)c1nc(cs1)C(=O)N[C@@H]2C", "note": "[DENDROAMIDE A]", "values": [
      {"measurement": "Activity", "setting": "[1]", "result": "Not Active"},
      {"measurement": "Activity", "setting": "[2]", "result": "Active"},
      {"measurement": "Activity", "setting": "MCF7/VP [3]", "result": "Active"},
      {"measurement": "Activity", "setting": "MCF7/VP [4]", "result": "inactive"},
      {"measurement": "Activity", "setting": "NCI/ADR-RES [5]", "result": 50, "unit": "%"},
      {"measurement": "Activity", "setting": "[6]", "result": "Active"},
      {"measurement": "Activity", "setting": "MCF7/VP [7]", "result": "Active"},
      {"measurement": "Activity", "setting": "MCF7/VP [8]", "result": "Active"},
      {"measurement": "Activity", "setting": "[9]", "result": "Active"},
      {"measurement": "Activity", "setting": "[10]", "result": "Not Active"}
    ]},
    {"smiles": "CSCC[C@H]1NC(=O)c2csc(n2)[C@@H](C)NC(=O)c2nc(oc2C)[C@@H](C)NC(=O)c2csc1n2", "note": "[DENDROAMIDE B]", "values": [
      {"measurement": "Activity", "setting": "[1]", "result": "Not Active"},
      {"measurement": "Activity", "setting": "[2]", "result": "Not Active"},
      {"measurement": "Activity", "setting": "NCI/ADR-RES [5]", "result": "inactive"},
      {"measurement": "Activity", "setting": "[6]", "result": "Not Active"},
      {"measurement": "Activity", "setting": "[11]", "result": "Not Active"},
      {"measurement": "Activity", "setting": "NCI/ADR-RES [12]", "result": "inactive"},
      {"measurement": "Activity", "setting": "[9]", "result": "Not Active"},
      {"measurement": "Activity", "setting": "[10]", "result": "Not Active"},
      {"measurement": "Activity", "setting": "[13]", "result": "Not Active"}
    ]},
    {"smiles": "Cc1oc2nc1C(=O)N[C@H](C)c1nc(cs1)C(=O)N[C@H](CC[S+](C)[O-])c1nc(cs1)C(=O)N[C@@H]2C", "note": "(stereo partly specified) [DENDROAMIDE C]", "values": [
      {"measurement": "Activity", "setting": "[1]", "result": "Not Active"},
      {"measurement": "Activity", "setting": "[2]", "result": "Not Active"},
      {"measurement": "Activity", "setting": "NCI/ADR-RES [5]", "result": "inactive"},
      {"measurement": "Activity", "setting": "[6]", "result": "Not Active"},
      {"measurement": "Activity", "setting": "[11]", "result": "Not Active"},
      {"measurement": "Activity", "setting": "NCI/ADR-RES [12]", "result": "inactive"},
      {"measurement": "Activity", "setting": "[9]", "result": "Not Active"},
      {"measurement": "Activity", "setting": "[10]", "result": "Not Active"},
      {"measurement": "Activity", "setting": "[13]", "result": "Not Active"}
    ]},
    {"smiles": "COc1ccc(CCN(C)CCCC(C#N)(c2ccc(OC)c(OC)c2)C(C)C)cc1OC", "note": "(stereo unspecified) [VERAPAMIL]", "values": [
      {"measurement": "Activity", "setting": "MCF7/VP [14]", "result": "Active"},
      {"measurement": "Activity", "setting": "NCI/ADR-RES [12]", "result": 50, "unit": "%"},
      {"measurement": "Activity", "setting": "[10]", "result": "Not Active"}
    ]}
  ]
}
